Results: ChEMBL document CHEMBL3351321, “Target evaluation of deoxyhypusine synthase from Theileria parva the neglected animal parasite and its relationship to Plasmodium” (Bioorg Med Chem, 2014)

Assays:
Plasmodium falciparum = test: Antiplasmodial activity against Plasmodium falciparum 3D7 assessed as inhibition of parasite growth at 5 uM; assay type: functional
Theileria parva = test: Inhibition of Theileria parva deoxyhypusine synthase expressed in Escherichia coli Rosetta cells assessed as reduction in deoxyhypusine level at 2 uM

SMILES	inhibition at 5 µM (Plasmodium falciparum) [%]	inhibition (Theileria parva) [%]
CNCCCNc1ccnc2cc(Cl)ccc12	98	13
O=[N+]([O-])c1ccc(C=NNc2nc3ccccc3[nH]2)cc1	99	56
Fc1ccc2[nH]c3c(NCCCN4CCOCC4)ncnc3c2c1	98	23
